According to patent publication US20190144828A1, “HAEMATOPOIETIC STEM/PROGENITOR CELLS” (priority 2016, published 2019):

Tests used:
[1] = tested on: HOXA and CDX genes; assay: RT-PCR of HOXA and CDX genes in differentiating hESC cultures supplemented with SB, CHIR or SB/CHIR; format: cell-based, human; conditions: added from differentiation days 2 to 4; RT-PCR at d4 and d7
Protocol: Total RNA was prepared from ES cells and dissociated EBs using the Qiagen RNeasy kit or the Bioline Isolate II RNA Mini Kit according to the manufacturers' instructions. cDNA was reverse transcribed using random hexamer priming and Superscript III (Invitrogen) or Tetro (Bioline) cDNA synthesis kits as specified by the manufacturer. Human RUNX1 isoform specific primers (Table 1) were based on those designed for mouse Runx1 previously. For other genes, TaqMan gene expression probes and reagents (Applied Biosystems) were used for quantitative real-time PCR analysis and GAPDH was used as the reference gene to normalize data.
The HES3 and H9 human embryonic stem cell lines used in these studies were obtained from ES Cell International (now owned by Biotime Inc) and WiCell. The human ESC work was approved by the Monash Medical Centre and Royal Children's Hospital Human Research Ethics Committees. Culture and enzymatic passaging of hESC lines was performed as reported in Ng et al. Nature Protocols 3, 768-776 (2008). […] Brightfield and fluorescence images comparing RUNX1C^GFP/w with RUNX1C^GFP/GFP cell cultures shown in FIG. 1b were representative of 3 independent experiments. […]

[2] = tested on: anterior and posterior HOXA genes; assay: HOXA gene expression in hPSCs with EC23 and/or SB CHIR (FIG. 29); format: cell-based, human; conditions: d2-4
Protocol: hPSCs were differentiated in medium supplemented with CHIR99021, BMP4, VEGF, SCF, ACTIVIN A and FGF2 (denoted CH BVSAF in FIG. 29) from d0-4, or with an additional pulse of SB431542 and CHIR99021 (denoted SB CHIR in FIG. 29) from d2-4. Cultures also were treated with the retinoic acid analogue EC23 at 0, 10^−5 M or 10^−7 M concentrations from d2-4 (denoted 0, 10-5 and 10-7, respectively in FIG. 29). […] Gene expression was normalized to GAPDH and is shown in arbitrary units in FIG. 29.

Structure (SMILES) | HOXA gene expression compared with control cultures [1] | effectiveness on HOXA gene induction ([2]; 10^−5 M) | effectiveness on HOXA gene induction ([2]; 10^−7 M)
Cc1c[nH]c(-c2cnc(NCCNc3ccc(C#N)cn3)nc2-c2ccc(Cl)cc2Cl)n1 [CHIR, CHIR99021] | increased HOXA9 and HOXA10 expression |  | 
CC1(C)CCC(C)(C)c2cc(C#Cc3ccc(C(=O)O)cc3)ccc21 [EC23] |  | effective | effective
NC(=O)c1ccc(-c2nc(-c3ccc4c(c3)OCO4)c(-c3ccccn3)[nH]2)cc1 [SB, SB431542] | increased HOXA3, HOXA7 and HOXA9 expression |  | 
